According to US5886000A, “Anti-HIV agent” (Nissui Pharmaceutical Co., Ltd,, priority 1994, dated 1999):
Read-outs that look alike come from different tables or passages of the source.

Columns and labels:
U937 /RF = test: Anti-HIV activity in persistently infected U937 /RF cells; assay type: cell-based
Experimental: (§1) Predetermined concentrations of test agents were separately added to cells (2×10^5 cells/ml, 10 ml) persistently infected with HIV in a logarithmic growth phase to culture them for 96 hours, thereby counting the number of living cells and the number of killed cells every 24 hours by a trypan blue dye exclusion test to determine the cytotoxic effects of the test agents on the cells. A viral infectious titer (TCID50 /ml) in each of the culture solutions incubated for 96 hours was determined by 72-hour culture using, as an index, the giant cell formation of MT-4 cells. As a control, culture was conducted in a medium free of any agent. An anti-HIV activity (inhibition %) was determined in accordance with the following equation. [formula]

Molt-4/IIIB = test: Anti-HIV activity in persistently infected Molt-4/IIIB cells; assay type: cell-based; conditions: Human immunodeficiency virus 1, IIIB, read-out: Anti-HIV activities (inhibition %)
Experimental: as §1

CEM/LAV-1 = test: Anti-HIV activity in persistently infected CEM/LAV-1 cells; assay type: cell-based
Experimental: as §1

H9 /MN = test: Anti-HIV activity in persistently infected H9 /MN cells; assay type: cell-based
Experimental: as §1

Tat = target: T1, Tat (Human immunodeficiency virus type 1 group M subtype B, UniProt P04608); test: Tat-inhibiting effect (reporter plasmid and Tat activator plasmid cotransfected into COS-7 cells); assay type: cell-based, HIV
T1 construct: expressed in transfected cells; host or cells: COS-7 cells
Experimental: After a reporter plasmid and an activator plasmid of Tat were cotransfected into COS-7 cells by a DEAE dextran method to culture the cells at 37° C. for 24 hours in the presence of 5% CO2, the transfectant was added to 96-well microplates, in which a test agent had been placed in advance, in a proportion of 1×10^4 cells/well, followed by reculture at 37° C. for 3 days in the presence of 5% CO2. A supernatant (50 μl) of each of the cultures was then added to another 96-well microplate in which p-nitrophenyl phosphate as a substrate and a buffer had been placed, followed by incubation at 37° C. for 3 hours. The variation in absorbance at 405 nm due to p-nitrophenol formed was then measured to determine the presence of a Tat-inhibiting effect.

AIDS = conditions: clinical use; cited from earlier work
CEM/LAV cells = test: Cytotoxicity test, CEM/LAV cells persistently producing HIV-1 (trypan blue dye exclusion); assay type: cell-based; conditions: 500 μM
Experimental: (§2) Culture solutions (10 ml) of CEM and a strain CEM/LAV persistently producing HIV-1, both, in a logarithmic growth phase were prepared with media containing various concentrations of a test agent so as to give a concentration of 2.5×10^5 cells/ml, followed by culture at 37° C. in the presence of 5% CO2. After pipetting each cells culture solution every 24 hours, it was collected to count the number of living cells and the number of killed cells by a trypan blue dye exclusion test.

[1] = system: primarily infected CEM cells; test: Effect on growth of primarily infected CEM cells; assay type: cell-based, HIV-1; conditions: concentrations not greater than 500 μM
Experimental: (§3) Cells were collected from a culture solution (1.0×10^6 cells/ml, 108 ml) of CEM in a logarithmic growth phase by centrifugation (260×g, 5 minutes). An HIV-1 virus solution (12×10^5 TCID50) was added to the cells to culture them at 37° C. for 24 hours in 180 ml of a medium, thereby adsorbing the virus thereon. After a culture supernatant containing the virus was then removed by centrifugation (260×g, 5 minutes), and the residue was washed three times with 50 ml of an RPMI-1640 basal medium under centrifugation (260×g, 5 minutes), media separately containing predetermined concentrations of test agents were used to prepare cell suspensions (1×10^5 cells/ml, 50 ml×2 sample for each concentration of the test agents). Each of these cell culture solutions was collected in 25-ml portions every 24 hours until 96 hours passed by. The collected solutions were subjected to SDS-PAGE, followed by western immunoblotting to detect virus-constituting proteins. Incidentally, an HIV-1 positive serum was used as a primary antibody.

[2] = system: HIV-1 in primarily infected CEM cells; test: Viral infectious titer in culture supernatant of primarily infected CEM cells; assay type: cell-based; conditions: Human immunodeficiency virus 1, CCRF-CEM, % of a control
CEM cells = test: Cytotoxicity test, CEM cells (trypan blue dye exclusion); assay type: cell-based; conditions: concentrations not greater than 500 μM
Experimental: as §2

[3] = system: HIV-constituting proteins (p24, p41); test: Detection of HIV-constituting proteins by western immunoblotting, primarily infected CEM cells; assay type: cell-based, HIV-1; conditions: 500 μM
Experimental: as §3

[4] = system: CEM/LAV-1, H9 /MN and Molt-4/IIIB cells; test: Anti-HIV activity, summary over CEM/LAV-1, H9 /MN and Molt-4/IIIB cells; assay type: cell-based; conditions: 500 μM
Experimental: as §1

[5] = Human immunodeficiency virus 1, 50 μM, 96 hours, read-out: Anti-HIV activities (inhibition %)
[6] = Human immunodeficiency virus 1, 96 h, read-out: Anti-HIV activities (inhibition %)
[7] = COS-7, control = 100, read-out: Specific activity (%) (Average ± SE)
[8] = Human immunodeficiency virus 1, 125 μM, 96 hours, read-out: Anti-HIV activities (inhibition %)
[9] = Human immunodeficiency virus 1, 500 μM, 96 hours, read-out: Anti-HIV activities (inhibition %)
[10] = Human immunodeficiency virus 1, U-937, 50 μM, 96 hours, read-out: Anti-HIV activities (inhibition %)

T1 sequence (P04608 whole entry): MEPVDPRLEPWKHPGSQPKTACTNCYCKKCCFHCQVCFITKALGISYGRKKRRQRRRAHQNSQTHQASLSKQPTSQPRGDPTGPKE

Structure (SMILES): CC(=C(CCO)SSCC1CCCO1)N(C=O)Cc1cnc(C)nc1N (stereo in doubt) [Fursultiamine, fursultiamine]
- anti-HIV activity (in words) (U937 /RF; 50 μM): marked anti-HIV activities
- inhibition at 50 µM (U937 /RF; Human immunodeficiency virus 1, U-937, 96 h, read-out: Anti-HIV activities (inhibition %)): 60%
- inhibition at 50 µM (Molt-4/IIIB; MOLT-4, 96 h): 0%
- anti-HIV activity (in words) (CEM/LAV-1; 50 μM): marked anti-HIV activities
- inhibition at 50 µM (CEM/LAV-1; [5]): 95%
- anti-HIV activity (in words) (H9 /MN; 50 μM): marked anti-HIV activities
- inhibition at 50 µM (H9 /MN; [6]): 96%

Structure (SMILES): N[C@@H](CCC(=O)N[C@@H](CS)C(=O)NCC(=O)O)C(=O)O [Glutathione]
- activity at 250 µM (Tat; [7]): 110 ± 17%

Structure (SMILES): Cc1cn([C@H]2C[C@H](N=[N+]=[N-])[C@@H](CO)O2)c(=O)[nH]c1=O [AZT, azidothymidine]
- side effects (AIDS): headache, gastrointestinal disorders and a myelodepresant effect

Structure (SMILES): CC(=C(CCO)SSC(CCO)=C(C)N(C=O)Cc1cnc(C)nc1N)N(C=O)Cc1cnc(C)nc1N [Thiamine disulfide, thiamine disulfide]
- inhibition at 125 µM (U937 /RF; Human immunodeficiency virus 1, U-937, 125 μM, 96 hours, read-out: Anti-HIV activities (inhibition %)): 0%
- inhibition at 500 µM (U937 /RF; Human immunodeficiency virus 1, U-937, 500 μM, 96 hours, read-out: Anti-HIV activities (inhibition %)): 80%
- anti-HIV activity (in words) (U937 /RF; concentration not given): marked anti-HIV activities
- effect on growth and proliferation of CEM/LAV cells (CEM/LAV cells): clearly inhibited the growth and proliferation
- number of killed cells (CEM/LAV cells): the number of killed cells did not increase
- effect on growth of primarily infected CEM cells [1]: did not affect the growth
- inhibition at 125 µM (Molt-4/IIIB; MOLT-4, 125 μM, 96 hours): 80%
- inhibition at 500 µM (Molt-4/IIIB; MOLT-4, 500 μM, 96 hours): 97%
- activity at 500 µM [2]: 0.3%
- inhibition at 125 µM (CEM/LAV-1; [8]): 51%
- inhibition at 500 µM (CEM/LAV-1; [9]): 90%
- inhibition at 125 µM (H9 /MN; [8]): 90%
- inhibition at 500 µM (H9 /MN; [9]): 99%
- effect on growth and proliferation of CEM cells (CEM cells): did not affect the growth and proliferation
- formation of p24 and p41 protein in culture supernatant [3]: neither p24 protein nor p41 protein was formed
- activity at 125 µM (Tat; [7]): 92.3 ± 6.1%
- activity at 250 µM (Tat; [7]): 64.4 ± 6.1%
- activity at 500 µM (Tat; [7]): 36.1 ± 6.3%
- inhibition of the activity of Tat (Tat; concentrations of 125-500 μM): inhibited the activity of Tat in dependence on dose
- anti-HIV activity (in words) [4]: marked anti-HIV activities

Structure (SMILES): CC(=C(CCOC(=O)C(C)C)SSC(CCOC(=O)C(C)C)=C(C)N(C=O)Cc1cnc(C)nc1N)N(C=O)Cc1cnc(C)nc1N [Bisibutiamine, bisibutiamine]
- inhibition at 50 µM (U937 /RF; [10]): 0%
- inhibition at 50 µM (Molt-4/IIIB; MOLT-4, 50 μM, 96 hours): 0%
- inhibition at 50 µM (CEM/LAV-1; [6]): 0%
- anti-HIV activity (in words) (H9 /MN; 50 μM): marked anti-HIV activities
- inhibition at 50 µM (H9 /MN; [5]): 60%

Structure (SMILES): CC(=O)N[C@@H](CS)C(=O)O [N-Acetylcysteine]
- activity at 125 µM (Tat; [7]): 107 ± 13%
- activity at 250 µM (Tat; [7]): 92 ± 8%
- activity at 500 µM (Tat; [7]): 81.5 ± 5.7%

Structure (SMILES): O=C(O)CCCCC1CCSS1 (stereo not drawn) [α-Lipoic acid]
- activity at 62.5 µM (Tat; COS-7, 62.5 μM, control = 100, read-out: Specific activity (%) (Average ± SE)): 78.8 ± 7.4%
- activity at 125 µM (Tat; [7]): 41.6 ± 9.9%
- activity at 250 µM (Tat; [7]): 17.5 ± 2.1%

Structure (SMILES): C=CCSSC(CCO)=C(C)N(C=O)Cc1cnc(C)nc1N [Alitiamine, alitiamine]
- inhibition at 50 µM (U937 /RF; [10]): 0%
- inhibition at 50 µM (Molt-4/IIIB; MOLT-4, 50 μM, 96 hours): 0%
- anti-HIV activity (in words) (CEM/LAV-1; 50 μM): marked anti-HIV activities
- inhibition at 50 µM (H9 /MN; [5]): 0%
